Measurements taken from paper PMC7717600, “Novel [(N-alkyl-3-indolylmethylene)hydrazono]oxindoles arrest cell cycle and induce cell apoptosis by inhibiting CDK2 and Bcl-2: synthesis, biological evaluation and in silico studies” (Journal of Enzyme Inhibition and Medicinal Chemistry, 2020).
Like-named read-outs stand apart in the source and are kept apart here.

What was measured:
MCF7 [1] = assay: cells; conditions: Homo sapiens
MDA-MB-435 = assay: NCI SRB screening; format: cell-based
[2] = test system: breast T-47D cancer cells; assay: Annexin V-FITC/PI apoptosis assay; format: cell-based, human
Excerpt: In an attempt to further investigate whether the antiproliferative activity for conjugate 8a is harmonious with the apoptosis induction within T-47D cells pointed out by the increased cell population in sub-G1 phase in 8a-treated T-47D cells (Figure 3), Annexin V-FITC/PI dual staining analysis was used for the apoptosis assay (Figure 4).
Phosphatidylserine externalisation effect of conjugate 8a over breast T-47D cancer cell line was investigated using Annexin-V-FITC Apoptosis Detection Kit by flow cytometry, as described earlier.
4.2.4. Cell Cycle Analysis
Subsequently, the treated cells
Annexin V-FITC Apoptosis Assay
period of 30 min at 4 °C.
Technologies, Darmstadt, Germany).
μl PEG20.000). […] H3PO4. Aliquots were […]

U251 [3] = conditions: for TGI: U251
SN12C = assay: cells; conditions: Homo sapiens
NCI-H226 = conditions: for TGI: NCI-H226
OVCAR-8 = conditions: for TGI: OVCAR-8
DU-145 = assay: cells; conditions: Homo sapiens
MOLT-4 = assay: cells; conditions: Homo sapiens
IGROV1 [4] = conditions: for TGI: IGROV1
M14 = assay: NCI SRB screening; format: cell-based
[5] = test system: breast T-47D cancer cells; assay: Cell cycle analysis by DNA flow cytometry; format: cell-based, human; conditions: 8a at GI50 concentration (0.41 µM), 24 h
Method: were washed twice with ice-cold phosphate buffered saline (PBS). Subsequently, the treated cells were collected by centrifugation, fixed in ice-cold 70% (v/v) ethanol, washed with PBS, re-suspended with 100 μg/mL RNase, stained with 40 μg/mL PI, and analyzed by flow cytometry using FACS Calibur (Becton Dickinson, BD, Franklin Lakes, NJ, USA). The cell cycle distributions were calculated using CellQuest software 5.1 (Becton Dickinson).

IGROV1 [6] = assay: cells; conditions: Homo sapiens
MCF7 [7] = conditions: for TGI: MCF7
SF-295 = conditions: for TGI: SF-295
MDA-MB-231/ATCC = assay: cells; conditions: Homo sapiens
SK-MEL-2 = assay: cells; conditions: Homo sapiens
UACC-62 [8] = assay: cells; conditions: Homo sapiens
A498 = conditions: for TGI: A498
OVCAR-5 = assay: cells; conditions: Homo sapiens
HL-60(TB) = assay: cells; conditions: Homo sapiens
SF-539 [9] = conditions: for TGI: SF-539
ACHN = assay: cells; conditions: Homo sapiens
NCI-H23 = conditions: for TGI: NCI-H23
MDA-MB-468 = conditions: for TGI: MDA-MB-468
UO-31 = assay: cells; conditions: Homo sapiens
SNB-19 = assay: cells; conditions: Homo sapiens
NCI-H322M = assay: NCI SRB screening
SF-539 [10] = assay: cells; conditions: Homo sapiens
HS 578T = assay: cells; conditions: Homo sapiens
UACC-62 [11] = conditions: for TGI: UACC-62
SNB-75 = conditions: for TGI: SNB-75
SW-620 = conditions: for TGI: SW-620
CDK2 = CDK2 (Homo sapiens, UniProt P24941); assay: CDK2 inhibition assay; format: biochemical; conditions: CDK2, mean ± SE of three
Method: and of the test compound in a final volume of 10 µL, all in a reaction buffer (60 mM HEPES-NaOH, pH 7.5, 3 mM MgCl2, 3 mM MnCl2, 3 μM Na-orthovanadate, 1.2 mM DTT, 2.5 μg / 50 μl PEG20.000). The reactions were stopped by adding 5 µL of 3 % aq. H3PO4. Aliquots were spotted onto P-81 phosphocellulose (Whatman), washed 3× with 0.5 % aq. H3PO4 and finally air-dried. Kinase inhibition was quantified using a FLA-7000 digital image analyzer (Fujifilm).

TK-10 = assay: cells; conditions: Homo sapiens
K-562 = conditions: for TGI: K-562
U251 [12] = assay: cells; conditions: Homo sapiens

Compound: CCCn1cc(C=NN=C2C(=O)Nc3ccc(C)cc32)c2ccccc21 [Compound 8a]
- GI50 (MCF7 [1]; MCF7): 1.54 µM
- CC50 (MCF7 [1]; MCF7, read-out: LC50): > 100 µM
- GI50 (MDA-MB-435; Homo sapiens, MDA-MB-435): 1.5 µM
- TGI (MDA-MB-435; MDA-MB-435): 2.96 µM
- GI % (MDA-MB-435; MDA-MB-435, 10 μM): 127%
- Growth Percent (MDA-MB-435; MDA-MB-435, 1.00E-5 Molar): -26.64%
- TGI (MDA-MB-435; MDA-MB-435, listed as D - 795311 / 1): 2.96E-6 Molar
- apoptotic cells, early apoptotic phase ([2]; control 0.26%): 4.82%
- apoptotic cells, late apoptotic phase ([2]; control 0.47%): 14.62%
- increase in total apoptosis ([2]; vs untreated control): about 26 fold
- TGI (U251 [3]): 17.3 µM
- GI % (U251 [3]; U251, 10 μM): 60%
- Growth Percent (U251 [3]; U251, 1.00E-5 Molar): 39.96%
- TGI (U251 [3]; listed as D - 795311 / 1): 1.73E-5 Molar
- GI50 (SN12C): 3.2 µM
- CC50 (SN12C; read-out: LC50): > 100 µM
- TGI (NCI-H226): 20.6 µM
- Growth Percent (NCI-H226; NCI-H226, 1.00E-5 Molar): 92.04%
- TGI (NCI-H226; listed as D - 795311 / 1): 2.06E-5 Molar
- TGI (OVCAR-8): >100 µM
- GI % (OVCAR-8; OVCAR-8, 10 μM): 53%
- Growth Percent (OVCAR-8; OVCAR-8, 1.00E-5 Molar): 47.49%
- TGI (OVCAR-8; listed as D - 795311 / 1): > 1.00E-4 Molar
- GI50 (DU-145; DU-145): 3.88 µM
- CC50 (DU-145; DU-145, read-out: LC50): > 100 µM
- GI50 (MOLT-4; MOLT-4, MOLT-4): 0.682 µM
- CC50 (MOLT-4; MOLT-4, read-out: LC50): > 100 µM
- TGI (IGROV1 [4]): 63.10 µM
- GI % (IGROV1 [4]; IGROV1, 10 μM): 61%
- Growth Percent (IGROV1 [4]; IGROV1, 1.00E-5 Molar): 39.38%
- TGI (IGROV1 [4]; listed as D - 795311 / 1): 6.31E-5 Molar
- GI50 (M14; Homo sapiens, M14): 1.92 µM
- TGI (M14; M14): 4.70 µM
- GI % (M14; M14, 10 μM): 44%
- Growth Percent (M14; M14, 1.00E-5 Molar): 56.29%
- TGI (M14; M14, listed as D - 795311 / 1): 4.70E-6 Molar
- cell population in sub-G1 phase ([5]; control 1.25%): 17.73%
- G2/M phase fraction ([5]; control 19.19%): 34.05%
- GI50 (IGROV1 [6]; IGROV-1): 3.38 µM
- CC50 (IGROV1 [6]; IGROV-1, read-out: LC50): > 100 µM
- TGI (MCF7 [7]): 15.50 µM
- GI % (MCF7 [7]; MCF7, 10 μM): 91%
- Growth Percent (MCF7 [7]; MCF7, 1.00E-5 Molar): 8.92%
- TGI (MCF7 [7]; listed as D - 795311 / 1): 1.55E-5 Molar
- TGI (SF-295): 96.6 µM
- GI % (SF-295; SF-295, 10 μM): 29%
- Growth Percent (SF-295; SF-295, 1.00E-5 Molar): 71.12%
- TGI (SF-295; listed as D - 795311 / 1): 9.66E-5 Molar
- GI50 (MDA-MB-231/ATCC; MDA-MB-231): 1.81 µM
- CC50 (MDA-MB-231/ATCC; MDA-MB-231, read-out: LC50): > 100 µM
- GI50 (SK-MEL-2; SK-MEL-2): 2.42 µM
- CC50 (SK-MEL-2; SK-MEL-2, read-out: LC50): > 100 µM
- TGI (A549/ATCC): 39.6 µM
- GI % (A549/ATCC; 10 μM): 36%
- Growth Percent (A549/ATCC; 1.00E-5 Molar): 63.93%
- TGI (A549/ATCC; listed as D - 795311 / 1): 3.96E-5 Molar
- GI50 (UACC-62 [8]; UACC-62): 2.24 µM
- CC50 (UACC-62 [8]; UACC-62, read-out: LC50): > 100 µM
- TGI (A498): 7.50 µM
- GI % (A498; A498, 10 μM): 43%
- Growth Percent (A498; A498, 1.00E-5 Molar): 57.21%
- TGI (A498; listed as D - 795311 / 1): 7.50E-6 Molar
- GI50 (OVCAR-5; OVCAR-5): 4.04 µM
- CC50 (OVCAR-5; OVCAR-5, read-out: LC50): > 100 µM
- GI50 (HL-60(TB); HL-60): 1.31 µM
- CC50 (HL-60(TB); HL-60, read-out: LC50): > 100 µM
- TGI (SF-539 [9]): 17.1 µM
- GI % (SF-539 [9]; SF-539, 10 μM): 66%
- Growth Percent (SF-539 [9]; SF-539, 1.00E-5 Molar): 33.94%
- TGI (SF-539 [9]; listed as D - 795311 / 1): 1.71E-5 Molar
- GI50 (ACHN): 3.56 µM
- CC50 (ACHN; read-out: LC50): > 100 µM
- TGI (NCI-H23): 38.2 µM
- GI % (NCI-H23; NCI-H23, 10 μM): 52%
- Growth Percent (NCI-H23; NCI-H23, 1.00E-5 Molar): 48.03%
- TGI (NCI-H23; listed as D - 795311 / 1): 3.82E-5 Molar
- TGI (MDA-MB-468): 5.78 µM
- GI % (MDA-MB-468; MDA-MB-468, 10 μM): 75%
- Growth Percent (MDA-MB-468; MDA-MB-468, 1.00E-5 Molar): 25.19%
- TGI (MDA-MB-468; listed as D - 795311 / 1): 5.78E-6 Molar
- GI50 (UO-31; UO-31): 2.28 µM
- CC50 (UO-31; UO-31, read-out: LC50): > 100 µM
- GI50 (SNB-19; SNB-19): 4.24 µM
- CC50 (SNB-19; SNB-19, read-out: LC50): > 100 µM
- TGI (NCI-H322M): >100 µM
- GI % (NCI-H322M; 10 μM): 53%
- Growth Percent (NCI-H322M; 1.00E-5 Molar): 47.76%
- GI50 (NCI-H322M; Homo sapiens): 3.42 µM
- CC50 (NCI-H322M; Homo sapiens, read-out: LC50): > 100 µM
- TGI (NCI-H322M; listed as D - 795311 / 1): > 1.00E-4 Molar
- GI50 (SF-539 [10]; SF-539): 2.69 µM
- CC50 (SF-539 [10]; SF-539, read-out: LC50): > 100 µM
- GI50 (HS 578T): 11.3 µM
- CC50 (HS 578T; read-out: LC50): > 100 µM
- TGI (UACC-62 [11]): 12.10 µM
- GI % (UACC-62 [11]; UACC-62, 10 μM): 60%
- Growth Percent (UACC-62 [11]; UACC-62, 1.00E-5 Molar): 40.39%
- TGI (UACC-62 [11]; listed as D - 795311 / 1): 1.21E-5 Molar
- TGI (SNB-75): 46.0 µM
- GI % (SNB-75; SNB-75, 10 μM): 15%
- Growth Percent (SNB-75; SNB-75, 1.00E-5 Molar): 85.63%
- TGI (SNB-75; listed as D - 795311 / 1): 4.60E-5 Molar
- TGI (SW-620): 35.3 µM
- GI % (SW-620; SW-620, 10 μM): 64%
- Growth Percent (SW-620; SW-620, 1.00E-5 Molar): 36.69%
- TGI (SW-620; listed as D - 795311 / 1): 3.53E-5 Molar
- IC50 (CDK2): 0.85 ± 0.03 µM
- GI50 (T-47D): 0.41 µM
- TGI (T-47D): 18.40 µM
- GI % (T-47D; 10 μM): 61%
- Growth Percent (T-47D; 1.00E-5 Molar): 39.59%
- TGI (T-47D; listed as D - 795311 / 1): 1.84E-5 Molar
- GI50 (TK-10; TK-10): 11.1 µM
- CC50 (TK-10; TK-10, read-out: LC50): > 100 µM
- TGI (K-562): 20.5 µM
- GI % (K-562; K-562, 10 μM): 83%
- Growth Percent (K-562; K-562, 1.00E-5 Molar): 17.61%
- TGI (K-562; listed as D - 795311 / 1): 2.05E-5 Molar
- GI50 (U251 [12]; U-251): 3.51 µM
- CC50 (U251 [12]; U-251, read-out: LC50): > 100 µM
